Results on one substance are retold here after US10648968B2, “In vitro test system to evaluate xenobiotics as immune-modulators of drug transport and metabolism in human hepatocytes” (XenoTech, LLC, priority 2011, dated 2020).

The conditions of data set [1]: in humans following LPS treatment; correlated with changes in TNF and IL-6; cited from earlier work.
The subject of a further data set is CYP1A2. Particulars: co-cultures of hepatocyte and Kupffer cells, three livers, treated daily for 72 hours; phenacetin O-dealkylation by LC/MS/MS.
Another data set deals with CYP3A4. To be noted: co-cultures of hepatocyte and Kupffer cells, three livers, treated daily for 72 hours; testosterone 6β-hydroxylation by LC/MS/MS.

lipopolysaccharides [LPS]: in data set [1], the “antipyrine (AP) clearance” value was “changes”. The CYP1A2 activity result in the data set on CYP1A2 is “decrease”. Also, the CYP3A4 activity result in the data set with CYP3A4 was “decrease”.
